Data taken from US20230331803A1, “CO-AGONISTS OF THE GLP-1 AND AMYLIN RECEPTORS” (priority 2020, published 2023).
Entries after “also recorded” stand apart in the source; their conditions may differ. Where two headings read alike, the source gives them in different places. Starred links: 1 amine or outer side, 2 acyl side, 3 side chain; linkers in the order of their positions; H or OH if unused. Non-standard residues stand in square brackets, D forms with d. Groups on a side chain read outwards from the residue. *: point of attachment. Butyryl(4-SO2NHCO(CH2)16Tz) = O=C(CCCCCCCCCCCCCCCCc1nnn[nH]1)NS(=O)(=O)CCCC(=O)*; Decanoyl(10-O(3-COOH-Ph)) = O=C(O)c1cccc(OCCCCCCCCCC(=O)*)c1; C20 diacid = O=C(O)CCCCCCCCCCCCCCCCCCC(=O)*; C18 diacid = O=C(O)CCCCCCCCCCCCCCCCC(=O)*; C16 diacid = O=C(O)CCCCCCCCCCCCCCC(=O)*; γGlu = O=C(O)[C@H](CCC(=O)[*:2])N[*:1]; Desaminohistidyl = O=C(CCc1c[nH]cn1)*; εLys = N[C@@H](CCCCN[*:1])C(=O)[*:2]; Trx = NC[C@H]1CC[C@H](C(=O)O)CC1; AEEA = NCCOCCOCC(=O)O; Aib = CC(C)(N)C(=O)O

Key:
[1] = target: T1, human GLP-1 receptor (Homo sapiens, UniProt P43220); test: Human GLP-1 receptor in vitro potency assay (CRE-luciferase reporter, BHK cells); type: cell-based
T1 construct: expressed in transfected cells; host or cells: BHK (Baby Hamster Kidney) cells, clone BHK 467-12A KZ-10, stably transfected, with CRE-luciferase reporter
T1 sequence (P43220 24-463): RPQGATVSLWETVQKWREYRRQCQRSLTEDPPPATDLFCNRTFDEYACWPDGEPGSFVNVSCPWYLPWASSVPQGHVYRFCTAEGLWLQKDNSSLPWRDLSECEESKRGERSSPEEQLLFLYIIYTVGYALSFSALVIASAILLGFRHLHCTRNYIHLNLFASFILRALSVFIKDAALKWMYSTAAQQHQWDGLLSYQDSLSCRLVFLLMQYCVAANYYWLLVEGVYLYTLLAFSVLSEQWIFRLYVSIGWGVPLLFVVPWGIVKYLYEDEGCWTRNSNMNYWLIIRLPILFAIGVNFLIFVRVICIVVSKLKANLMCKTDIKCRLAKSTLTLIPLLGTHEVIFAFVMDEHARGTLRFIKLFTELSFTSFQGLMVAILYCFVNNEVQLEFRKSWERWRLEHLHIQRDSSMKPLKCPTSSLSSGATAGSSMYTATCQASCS
Procedure: It is thus possible to measure GLP-1 receptor activity using a CRE-luciferase reporter gene introduced into Baby Hamster Kidney (BHK) cells co-expressing the GLP-1 receptor.
(§1) Cells were aliquoted and stored at -180° C. until use.
Plates were sealed and incubated at room temperature with gentle shaking for 30 minutes while protected from light. Luminescence was detected on a luminescence plate reader e.g. a Synergy 2 (BioTek).

[2] = target: T2, human amylin receptor (hAmyR3) (Homo sapiens, UniProt O60896+P30988); test: Human amylin receptor in vitro potency assay (CRE-luciferase reporter, BHK cells); type: cell-based; details: for EC50: read-out: Human AmyR3 potency [EC50 (pM)]; for Ability to agonise the amylin receptor, in words: Tables 4a-4c;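 for all read-outs here: BHK cells expressing human calcitonin receptor plus RAMP3 (amylin-3 receptor) with a CRE-luciferase reporter, agonist activity read as luminescence from cAMP-driven transcription, 7-point serial dilutions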
T2 construct: host or cells: BHK cells (Hollex-1 line: human calcitonin receptor (a) + CRE-Luc), further transfected with human RAMP3
T2 sequence (P30988 25-474): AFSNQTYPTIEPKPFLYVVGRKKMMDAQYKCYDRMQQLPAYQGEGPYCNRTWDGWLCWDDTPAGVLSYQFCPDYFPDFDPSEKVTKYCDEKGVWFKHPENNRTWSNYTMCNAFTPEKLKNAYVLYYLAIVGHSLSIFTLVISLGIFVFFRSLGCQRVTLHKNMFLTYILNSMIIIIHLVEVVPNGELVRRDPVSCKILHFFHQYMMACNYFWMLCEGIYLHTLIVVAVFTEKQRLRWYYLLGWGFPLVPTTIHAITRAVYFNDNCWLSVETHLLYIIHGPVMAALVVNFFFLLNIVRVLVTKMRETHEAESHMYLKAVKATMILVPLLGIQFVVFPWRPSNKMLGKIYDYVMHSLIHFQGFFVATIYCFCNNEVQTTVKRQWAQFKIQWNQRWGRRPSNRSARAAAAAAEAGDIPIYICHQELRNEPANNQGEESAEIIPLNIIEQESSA
T2 sequence (O60896 24-148): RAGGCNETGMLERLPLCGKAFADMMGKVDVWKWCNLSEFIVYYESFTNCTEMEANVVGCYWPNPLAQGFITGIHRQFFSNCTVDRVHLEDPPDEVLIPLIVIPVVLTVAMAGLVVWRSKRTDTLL
From the text: Activation of hAmyR3 leads to increased cellular concentrations of cAMP. Consequently, transcription is activated by promotors containing multiple copies of the cAMP response element (CRE). It is thus possible to measure hAmyR3 activity using a CRE-luciferase reporter gene introduced into Baby Hamster Kidney (BHK) cells co-expressing the hAmyR3.
The cell line was further transfected with human receptor modifying protein 3 (RAMP3) using standard methods. This turns the human calcitonin receptor into a human amylin-3(a) receptor.
as §1
The plate was incubated over night at 37° C. in 5% CO2. On the day of the assay, cells were washed three times in assay buffer. Serial dilutions (7-fold dilutions, 7 concentrations pr. compound and one well containing only assay buffer) of comparator compounds and GLP-1 receptor-amylin receptor co-agonists were performed in assay buffer often starting from approximately 10-100 nM in 96-well plates and 30 µL of each concentration added to the 384-well assay plate with cells. […] The assay plate was sealed, incubated at room temperature with gentle shaking for 5 minutes followed by 30 minutes incubation without shaking while protected from light. Luminescence was detected on a luminescence plate reader e.g. a Synergy 2 (BioTek).

[3] = tested on: Sprague Dawley (SD) rats; test: Acute food intake in ad libitum fed rats after a single subcutaneous administration; type: in vivo, rat; details: for Food intake relative to vehicle (%) 0-24 hr, 10 nmol/kg / Food intake relative to vehicle (%) 24-48 hr, 10 nmol/kg: rat, single administration; for Inhibition of food intake, in words: rats, 10 nmol/kg;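 for all read-outs here: food intake monitored in the HM2 system, three rats per cage kept on a reversed light cycle, with food and water freely available after the subcutaneous dose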
From the text: Sprague Dawley (SD) rats from Taconic Europe, Denmark were used for the acute food intake experiments, wherein the principles of laboratory animal care were followed.
The rats arrived at least 10-14 days before the start of the experiment to allow acclimatisation to experimental settings. During this period, the animals were handled at least 2 times. Immediately upon arrival, rats were put on a reversed light cycle (dark from 11am - 11pm) and put in the HM2 system and ID chipped. Three rats were housed in each cage. […] The rats were dosed once according to body weight with a 0.01-3 mg/kg solution administered subcutaneously (sc). The time of dosing was recorded for each group.
After dosing, the rats were returned to their home cages, where they had access to food and water. […] At the end of the experimental session, the animals were euthanised.

[4] = Pharmacokinetic studies in Beagle dogs after oral administration of SNAC-based tablets; type: in vivo; details: for Tmax / half-life: male, Beagle
Procedure: To be able to evaluate oral exposure following tablet dosing, tablet compositions comprising the test substance and SNAC (sodium N-(8-(2-hydroxybenzoyl)amino)caprylate) were prepared by mixing test substance with roller compacted SNAC and magnesium stearate as, e.g., described in WO 2019/149880. The amount of SNAC in the tablet composition was 100-300 mg, the amount of magnesium stearate in the tablet composition was 7.7 mg, and the target amount of each test substance in the tablet composition was 3-4 mg.
Pharmacokinetic (PK) studies in Beagle dogs were conducted to determine the exposure of the GLP-1 receptor-amylin receptor co-agonist after peroral administration.
For the pharmacokinetic studies male Beagle dogs were used, 2-7, or 1 to 5, years of age and weighing approximately 10-15, such as 10-12, kg at the start of the studies. The dogs were group housed in pens (12 hours light: 12 hours dark),and fed individually and restrictedly once daily with Royal Canin Medium Adult dog (Royal Canin Products, China Branch, or Brogaarden A/S, Denmark). Exercise and group social were permitted daily, whenever possible. The dogs were used for repeated pharmacokinetic studies with a suitable wash-out period between successive dosing. An appropriate acclimatisation period was given prior to initiation of the first pharmacokinetic study. All handling, dosing and blood sampling of the animals were performed by trained and skilled staff. Before the studies the dogs were fasted overnight and from 0 to 4 h after dosing. Besides, the dogs were restricted to water 1 hour before dosing until 4 hours after dosing, but otherwise have ad libitum access to water during the whole period.
The tablets used for the p.o. studies described herein were immediate release SNAC-based tablets dosed orally.
The tablets were administered in the following manner: 10 min prior to tablet administration the dogs may be dosed subcutaneously with approximately 3 nmol/kg of SEQ ID NO: 237, tablets were placed in the back of the mouth of the dog to prevent chewing. The mouth was then closed, and 10 mL of tap water was given by a syringe or gavage to facilitate swallowing of the tablet.
Blood was sampled at predefined time points for up till 240 hours, such as up till 10 hr, post dosing to adequately cover the full plasma concentration-time absorption profile of the GLP-1 agonist.
For each blood sampling time point approximately 0.8 mL of whole blood was collected in a 1.5 mL EDTA coated tube, and the tube was gently turned to allowing mixing of the sample with the EDTA. Blood samples (for example 0.8 mL) were collected in EDTA buffer (8 mM) and then centrifuged at 4° C. and 2000 G for 10 minutes. Plasma was pipetted into Micronic tubes on dry ice, and kept at -20° C. until analysis.
Blood samples were taken as appropriate, for example from a venflon in the cephalic vein in the front leg for the first 2 hours and then with syringe from the jugular vein for the rest of the time points (the first few drops were allowed to drain from the venflon to avoid heparin saline from the venflon in the sample).
Plasma concentration of the GLP-1 receptor-amylin receptor co-agonists were determined using LCMS. Individual plasma concentration-time profiles were analysed by a non-compartmental model in WinNonlin v. 5.0 or Phoenix v. 6.2 or 6.3 (Pharsight Inc., Mountain View, CA, USA), or other relevant software for PK analysis.
The individual plasma concentration-time profiles were analysed by non-compartmental analysis (NCA).

[5] = Table 4a, BHK cells expressing human GLP-1R, CRE-Luc, 3 hours, read-out: Human GLP-1R potency [EC50 (pM)]
[6] = Table 4a, BHK hAmyR3/CRE-Luc cells, 3 hours
[7] = dogs, oral administration (tablet)
[8] = Table 4c, further comparator compounds

Substance | EC50 [1, 5] [pM] | EC50 [2, 6] [pM] | Food intake relative to vehicle (%) 0-24 hr, 10 nmol/kg ([3]; Table 6a) [%] | Food intake relative to vehicle (%) 24-48 hr, 10 nmol/kg ([3]; Table 6a) [%] | AUC/D ([4]; dog, in vivo, po) [kg·h/L] | Cmax/D ([4]; dog, in vivo, po) [kg/L] | Tmax ([4]; dog, in vivo, po, Tmax (hr)) [h] | half-life ([4]; dog, in vivo, po, T½ (hr)) [h] | also measured
Desaminohistidyl-AEGTFTSDVSSYLEEQAAREFIAWLVRGRK([AEEA-AEEA-γGlu-Trx-C20 diacid])EASELSTAALGRLSAELHELATLPRTETGSGSP-NH2 [Compound 0035] | 16.7 | 16 | 76 | 95 | – | – | – | – | –
H-H[Aib]EGTFTSDVSK([AEEA-AEEA-γGlu-C20 diacid])YLEEQAAREFIAWLVRGRGGGGGEASELSTAALGRLSAELHELATLPRTETGSGSP-NH2 [Compound 0565] | 6.4 | 6.2 | 39 | 42 | – | – | – | – | –
H-H[Aib]EGTFTSDVSSYLEEK([AEEA-AEEA-γGlu-C16 diacid])AAREFIAWLVRGRGGGGGEASELSTAALGRLSAELHELATLPRTETGK([AEEA-AEEA-γGlu-C16 diacid])GSP-NH2 [Compound 0411] | 3.5 | 45.9 | 81 | 88 | – | – | – | – | –
H-H[Aib]EGTFTSDVSSYLEEK([AEEA-AEEA-γGlu-Trx-C20 diacid])AAREFIAWLVRGRGGGGEASELSTAALGRLSAELHELATLPRTETGSGSP-NH2 [Compound 0265] | 6 | 8.1 | – | – | 5.68 | 0.16 | 2 | 16 | –
H-H[Aib]EGTFTSDVSSYLEEQAAK([εLys-AEEA-AEEA-γGlu-Trx-C20 diacid])EFIEWLVRGRGEASELSTAALGRLSAELHELATLPRTETGSGSP-NH2 [Compound 0436] | 15.2 | 12.3 | – | – | 15.00 | 0.3 | 1.5 | 35 | –
H-H[Aib]EGTFTSDVSSYLEEQAAREFIAWLVRGK([AEEA-AEEA-γGlu-Decanoyl(10-O(3-COOH-Ph))])K([AEEA-AEEA-γGlu-Decanoyl(10-O(3-COOH-Ph))])GGGGASELSTAALGRLSAELHELATLPRTETGSGSP-NH2 [Compound 0235] | 10.4 | 24 | – | – | – | – | – | – | AUC/D [4, 7]: 3.3 kg·h/L; Cmax/D [4, 7]: 0.22 kg/L; Tmax ([4]; dog, plasma, po, dogs, oral administration (tablet), read-out: Tmax): 1 h; half-life ([4]; dog, plasma, po, dogs, oral administration (tablet), read-out: T½ (converted)): 21 h
H-H[Aib]EGTFTSDVSSYLEEQAAREFIAWLVRGRK(Butyryl(4-SO2NHCO(CH2)16Tz))EASELSTAALGRLSAELHELATLPRTETGSGSP-NH2 [Compound 0103] | 28.1 | 11.6 | 80 | 80 | – | – | – | – | –
H-H[Aib]EGTFTSDVSSYLEEQAAREFIAWLVRGRK([AEEA-AEEA-γGlu-Trx-C20 diacid])GGEASELSTAALGRLSAELHELATLPRTETGSGSP-NH2 [Compound 0512] | 7.6 | 10.8 | – | – | 3.21 | 0.13 | 2 | 21 | –
H-H[Aib]EGTFTSDVSSYLEEQAAREFIAWLVRGRK([AEEA-AEEA-γGlu-Trx-C20 diacid])GGGGEASELSTAALGRPSAELHELATLPRTETGSGSP-NH2 [Comparator compound 0192, reference compound] | – | – | – | – | – | – | – | – | EC50 [2, 8]: ≥ 10000 pM; Ability to agonise the amylin receptor, in words [2]: impaired their ability to agonise (activate) the amylin receptor; also recorded: impaired amylin activity; Food intake relative to vehicle (%) 0-24 hr, 10 nmol/kg ([3]; Table 6b): 71%; Food intake relative to vehicle (%) 24-48 hr, 10 nmol/kg ([3]; Table 6b): 67%; Inhibition of food intake, in words [3]: significantly less than in the case of compound 0120
H-H[Aib]EGTFTSDVSSYLEEQAAREFIEWLVRGRK([AEEA-AEEA-γGlu-Trx-C20 diacid])GGGGEASELSTAALGRLSAELHELATLPRTETGSGSP-NH2 [Compound 0503] | 6.5 | 7.7 | – | – | 8.72 | 0.14 | 4 | 41 | –
H-H[Aib]EGTFTSDVSSYLEEQAAREIFAWLVRGRK([AEEA-AEEA-γGlu-Trx-C20 diacid])GGGGEASELSTAALGRLSAELHELATLPRTETGSGSP-NH2 [Comparator compound 0167, reference compound] | – | – | – | – | – | – | – | – | EC50 [1, 8]: ≥ 10000 pM; Ability to agonise the GLP-1 receptor, in words ([1]; Tables 4a-4c): impaired their ability to agonise (activate) the GLP-1 receptor; also recorded: impaired GLP-1 activity; EC50 [2, 8]: 10.9 pM; Ability to agonise the amylin receptor, in words [2]: full amylin potency; Food intake relative to vehicle (%) 0-24 hr, 10 nmol/kg ([3]; Table 6b): 85%; Food intake relative to vehicle (%) 24-48 hr, 10 nmol/kg ([3]; Table 6b): 73%; Inhibition of food intake, in words [3]: significantly less than in the case of compound 0120
H-H[Aib]EGTFTSDVSSYLEEQAARK([AEEA-AEEA-γGlu-C20 diacid])FIAWLVRGGASELSTAALGRLSAELHELATLPRTETGSGSP-NH2 [Compound 0580] | 7.4 | 9.3 | – | – | 12.77 | 0.38 | 2 | 39 | –
H-H[Aib]EGTFTSDVSSYLEGQAAK([AEEA-AEEA-γGlu-C18 diacid])EFIAWLVRGRGGGEASELSTAALGRLSAELHELATLPRTETGSGSP-NH2 [Compound 0007] | 13.3 | 9.4 | 67 | 105 | – | – | – | – | –
H-H[Aib]EGTFTSDVSSYLEGQAAREFIAWLVRGRGQEPK([AEEA-AEEA-γGlu-C20 diacid])GQAPEASELSTAALGRLSAELHELATLPRTETGSGSP-NH2 [Compound 0529] | 6.4 | 14.1 | – | – | 19.71 | 0.3 | 4 | 68 | –
H-H[Aib]EGTFTSDVSSYLEGQAAREFIAWLVRGRGQEPK([AEEA-AEEA-γGlu-Trx-C20 diacid])GQAPEASELSTAALGRLSAELHELATLPRTETGSGSP-NH2 [Compound 0539] | 5 | 12.1 | – | – | 8.71 | 0.22 | 3 | 30 | –
